Reference: ChEMBL document CHEMBL3351946, “Design and synthesis of potent antitumor water-soluble phenyl N-mustard-benzenealkylamide conjugates via a bioisostere approach” (Eur J Med Chem, 2014)

Legend:
CCRF-CEM [1] = assay: Cytotoxicity against human CCRF-CEM cells assessed as growth inhibition after 72 hrs by Alamar Blue assay; assay type: functional, cell-based
CCRF-CEM [2] = assay: Cytotoxicity against vinblastine-resistant human CCRF-CEM cells assessed as growth inhibition after 72 hrs by Alamar Blue assay; assay type: functional, cell-based
[3] = Cytotoxicity against human PC3 cells assessed as growth inhibition after 72 hrs by Alamar Blue assay; assay type: functional, cell-based; conditions: PC-3, 72 h
HT-29 = assay: Cytotoxicity against human HT-29 cells assessed as growth inhibition after 72 hrs by Alamar Blue assay; assay type: functional, cell-based; conditions: HT-29, 72 h
[4] = Cytotoxicity against human H460 cells assessed as growth inhibition after 72 hrs by Alamar Blue assay; assay type: functional, cell-based; conditions: NCI-H460, 72 h
[5] = Cytotoxicity against human H1299 cells assessed as growth inhibition after 72 hrs by Alamar Blue assay; assay type: functional, cell-based; conditions: NCI-H1299, 72 h
[6] = Cytotoxicity against human HCT116 cells assessed as growth inhibition after 72 hrs by Alamar Blue assay; assay type: functional, cell-based; conditions: HCT-116, 72 h
CCRF-CEM [7] = assay: Resistance factor, ratio of IC50 for vinblastine-resistant human CCRF-CEM cells to IC50 for human CCRF-CEM cells; assay type: functional
[8] = Cytotoxicity against human H3347 cells assessed as growth inhibition after 72 hrs by Alamar Blue assay; assay type: functional, cell-based; conditions: H3347, 72 h
[9] = Cytotoxicity against human DLD1 cells assessed as growth inhibition after 72 hrs by Alamar Blue assay; assay type: functional, cell-based; conditions: DLD-1, 72 h

| Structure (SMILES) | IC50 (CCRF-CEM [1]) [µM] | IC50 (CCRF-CEM [2]) [µM] | IC50 [3] [µM] | IC50 (HT-29) [µM] | IC50 [4] [µM] | IC50 [5] [µM] | IC50 [6] [µM] | Ratio IC50 (CCRF-CEM [7]) | IC50 [8] [µM] | IC50 [9] [µM] |
| --- | --- | --- | --- | --- | --- | --- | --- | --- | --- | --- |
| O=C(CN1CCCCC1)Nc1ccc(NC(=O)Nc2ccc(N(CCCl)CCCl)cc2)cc1 | 0.31 | 1.45 | 2.24 | 11.8 | 1.05 | 2.52 | 0.99 | 4.68 | 1.16 | 4.53 |
| O=C(CN1CCC(N2CCCCC2)CC1)Nc1ccc(NC(=O)Nc2ccc(N(CCCl)CCCl)cc2)cc1 | 1.14 | 52.2 | 7.24 | – | 14.9 | 14.4 | 4.24 | 45.8 | – | – |
| CN(C)CC(=O)Nc1cccc(NC(=O)Nc2ccc(N(CCCl)CCCl)cc2)c1 | 0.78 | 2.7 | 19 | – | 8.74 | 10.6 | 9.56 | 3.46 | – | – |
| CCN(CC)CCC(=O)Nc1cccc(NC(=O)Nc2ccc(N(CCCl)CCCl)cc2)c1 | 0.86 | 13 | 13 | – | 6.79 | 5.77 | 3.21 | 15.62 | – | – |
| CN(C)CCC(=O)Nc1cccc(NC(=O)Nc2ccc(N(CCCl)CCCl)cc2)c1 | 0.52 | 14.4 | 13.5 | – | 16.8 | 8.99 | 3.28 | 27.67 | – | – |
| CCN(CC)CCC(=O)Nc1ccc(NC(=O)Nc2ccc(N(CCCl)CCCl)cc2)cc1 | 0.3 | 8.27 | 2.47 | 19.3 | 1.83 | 10.3 | 3.08 | 27.57 | 1.03 | 7.82 |
| O=C(CCN1CCC(N2CCCCC2)CC1)Nc1cccc(NC(=O)Nc2ccc(N(CCCl)CCCl)cc2)c1 | 1.63 | 1.53 | 22.1 | – | 14.2 | 11 | 15.7 | 0.94 | – | – |
| O=C(CCN1CCOCC1)Nc1ccc(NC(=O)Nc2ccc(N(CCCl)CCCl)cc2)cc1 | 1.06 | 23.4 | 9.74 | – | 3.95 | 15.2 | 7.02 | 22.09 | – | – |
| O=C(Nc1ccc(C(=O)NCCN2CCCCC2)cc1)Nc1ccc(N(CCCl)CCCl)cc1 | 0.43 | 48.8 | 4.25 | – | 9.44 | 7.58 | 5.25 | 113.58 | – | – |
| O=C(CN1CCOCC1)Nc1ccc(NC(=O)Nc2ccc(N(CCCl)CCCl)cc2)cc1 | 1.13 | 18.4 | 16 | – | 4.74 | 18.6 | 6.67 | 16.27 | – | – |
| CN(C)CCC(=O)Nc1ccc(NC(=O)Nc2ccc(N(CCCl)CCCl)cc2)cc1 | – | – | – | 23.6 | – | – | – | – | 2.86 | 9.84 |
| O=C(Nc1ccc(N(CCCl)CCCl)cc1)Nc1cccc(C(=O)NCCN2CCCC2)c1 | 0.53 | 126 | 6.54 | – | 34.1 | 18.7 | 4.9 | 238.42 | – | – |
| O=C(Nc1ccc(N(CCCl)CCCl)cc1)Nc1cccc(C(=O)NCCN2CCCCC2)c1 | 0.57 | 28.4 | 4.54 | – | 12.8 | 10.3 | 5.47 | 49.91 | – | – |
| O=C(CCN1CCC(N2CCCCC2)CC1)Nc1ccc(NC(=O)Nc2ccc(N(CCCl)CCCl)cc2)cc1 | 0.72 | 120 | 30 | – | 14.5 | 36 | 11.1 | 166.17 | – | – |
| O=c1[nH]cc(F)c(=O)[nH]1 [FLUOROURACIL] | – | – | – | 24.9 | – | – | – | – | 11.6 | 29.1 |
| O=C(Nc1ccc(C(=O)NCCN2CCCC2)cc1)Nc1ccc(N(CCCl)CCCl)cc1 | 0.56 | 133 | 4.53 | – | 17.8 | 18.5 | 6.48 | 237.2 | – | – |
| CC[C@]1(O)C[C@@H]2CN(CCc3c([nH]c4ccccc34)[C@@](C(=O)OC)(c3cc4c(cc3OC)N(C)[C@H]3[C@@](O)(C(=O)OC)[C@H](OC(C)=O)[C@]5(CC)C=CCN6CC[C@]43[C@@H]65)C2)C1 [VINBLASTINE] | 0.0013 | 0.67 | – | – | – | – | – | – | – | – |
| O=C(CCN1CCCCC1)Nc1ccc(NC(=O)Nc2ccc(N(CCCl)CCCl)cc2)cc1 | – | 6.2 | 2.28 | 12.3 | 1.58 | 3.03 | 2.41 | – | 2.41 | 6.5 |
| CCN(CC)CC(=O)Nc1cccc(NC(=O)Nc2ccc(N(CCCl)CCCl)cc2)c1 | 2.01 | 1.38 | 13 | – | 5.67 | 11.7 | 4.62 | 0.69 | – | – |
| O=C(CCN1CCCCC1)Nc1cccc(NC(=O)Nc2ccc(N(CCCl)CCCl)cc2)c1 | 0.39 | 6.01 | 5.73 | – | 7.88 | 4.63 | 3.51 | 15.41 | – | – |
| CN(C)CCNC(=O)c1ccc(NC(=O)Nc2ccc(N(CCCl)CCCl)cc2)cc1 | 0.57 | 106 | 6.25 | – | 31.6 | 32 | 5.64 | 186.47 | – | – |
| O=C(CN1CCCCC1)Nc1cccc(NC(=O)Nc2ccc(N(CCCl)CCCl)cc2)c1 | 1.35 | 1.33 | 10.1 | – | 5.62 | 8.55 | 7.5 | 0.99 | – | – |
| O=C(CN1CCC(N2CCCCC2)CC1)Nc1cccc(NC(=O)Nc2ccc(N(CCCl)CCCl)cc2)c1 | 30.4 | 1.81 | 25.9 | – | 12.3 | 12.8 | 6.15 | 0.06 | – | – |
| O=C(CN1CCOCC1)Nc1cccc(NC(=O)Nc2ccc(N(CCCl)CCCl)cc2)c1 | 3.87 | 1.32 | 35.8 | – | 19.5 | 26.4 | 13 | 0.34 | – | – |
| O=C(CCN1CCOCC1)Nc1cccc(NC(=O)Nc2ccc(N(CCCl)CCCl)cc2)c1 | 3.1 | 4.84 | 35.5 | – | 38.5 | 15.9 | 16.8 | 1.56 | – | – |
| O=C(CN1CCCC1)Nc1cccc(NC(=O)Nc2ccc(N(CCCl)CCCl)cc2)c1 | 3.41 | 0.97 | 12.8 | – | 6.55 | 9.36 | 5.41 | 0.28 | – | – |
| O=C(CCN1CCCC1)Nc1cccc(NC(=O)Nc2ccc(N(CCCl)CCCl)cc2)c1 | 0.67 | 27.1 | 10.3 | – | 9.84 | 4.33 | 5.11 | 40.42 | – | – |
| CC[C@]1(O)C[C@H]2CN(CCc3c([nH]c4ccccc34)[C@@](C(=O)OC)(c3cc4c(cc3OC)N(C=O)[C@H]3[C@@](O)(C(=O)OC)[C@H](OC(C)=O)[C@]5(CC)C=CCN6CC[C@]43[C@@H]65)C2)C1 [VINCRISTINE] | 0.00232 | 2.13 | – | – | – | – | – | – | – | – |
